# Data taken from ChEMBL document CHEMBL1201862, “PubChem BioAssay data set” (2004).
# Several values for one entry are separate records, joined by “and”; a condition that tells them apart may be missing. Equal values may be shown once. Activity calls are given as the source filed them. Peptide text beside a SMILES is read from it. * marks the point of attachment. Cbz = O=C(OCc1ccccc1)*; CH2Cl = ClC*
# Experiments:
# Vero [1] = assay: cells; assay type: functional, cell-based; details: Chlorocebus sabaeus
# cells [2] = assay: cells
# [3] = viability of uninfected HEp-2 cells – cell-based, HTS, cytotoxicity control for RSV inhibitor project, dose response (AID 2410); assay type: functional; details: human respiratory syncytial virus
# [4] = molecular target: T1, Adenosylmethionine-8-amino-7-oxononanoate aminotransferase (Mycobacterium tuberculosis, UniProt P9WQ81); assay: Mycobacterium tuberculosis BioA enzyme inhibitor Measured in Biochemical System Using Plate Reader - 2163-02_Inhibitor_Dose_CherryPick_Activity.; assay type: functional, Mycobacterium tuberculosis UT205
# T1 sequence (P9WQ81 whole entry): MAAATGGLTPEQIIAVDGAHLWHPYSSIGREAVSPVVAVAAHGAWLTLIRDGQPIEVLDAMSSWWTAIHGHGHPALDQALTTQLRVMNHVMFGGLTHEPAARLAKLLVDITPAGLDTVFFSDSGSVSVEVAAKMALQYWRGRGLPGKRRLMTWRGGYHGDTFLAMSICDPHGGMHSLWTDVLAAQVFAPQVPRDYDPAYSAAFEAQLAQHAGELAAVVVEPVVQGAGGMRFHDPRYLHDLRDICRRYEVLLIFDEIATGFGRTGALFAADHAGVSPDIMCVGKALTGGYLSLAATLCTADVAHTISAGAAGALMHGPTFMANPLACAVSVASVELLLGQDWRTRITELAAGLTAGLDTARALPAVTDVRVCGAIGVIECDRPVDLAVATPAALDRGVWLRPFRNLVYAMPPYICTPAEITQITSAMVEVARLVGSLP
# [5] = decrease of insulin promoter-GFP reporter – imaging, high-content screening, mouse beta cells (AID 1628); assay type: functional; details: MIN6
# [6] = molecular target: T2, Ubiquitin-conjugating enzyme E2 N (Homo sapiens, UniProt P61088); assay type: functional;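 further: Dose-response confirmation in a TR-FRET assay detecting UBC13-driven polyubiquitin chain formation, inhibition measured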
# T2 sequence (P61088 whole entry): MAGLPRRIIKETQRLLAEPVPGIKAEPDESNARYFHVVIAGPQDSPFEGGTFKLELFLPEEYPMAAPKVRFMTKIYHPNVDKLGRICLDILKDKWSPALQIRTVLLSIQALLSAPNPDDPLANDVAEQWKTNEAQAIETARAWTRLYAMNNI
# [7] = MIN6 cell viability loss – mouse insulinoma, cytotoxicity control, dose response (AID 2122); assay type: functional;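 further: confirmatory high-throughput counterscreen run to flag cytotoxic compounds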
# [8] = HGIII-sPLA2 enzyme inhibition potency – biochemical, QFRET, IC50, dose response (AID 743457);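 further: green fluorescence rise as the enzyme cleaves BODIPY PC-A2 in liposomes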
# Fatty acid synthase [9] = molecular target: T3, Fatty acid synthase (Homo sapiens, UniProt P49327); assay: inhibition of human FAS-TE enzyme activity – biochemical, endpoint fluorescence intensity, uHTS hits, dose response (AID 624327); assay type: functional;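 further: fluorescence from hydrolysis of an O-methyl fluorescein acyl ester substrate by the enzyme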
# Fatty acid synthase [10] = molecular target: T3, Fatty acid synthase; assay: inhibition of human FAS-TE enzyme activity – biochemical, kinetic fluorescence intensity, dose response (AID 624326); assay type: functional;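 further: rate of fluorescence rise from hydrolysis of a fluorogenic O-methyl fluorescein ester substrate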
# [11] = molecular target: T4, Microphthalmia-associated transcription factor (Homo sapiens, UniProt O75030); assay: reducers of TRPM1 reporter luminescence, concentration series – cell-based, SK-MEL-5, cherry-picked, set 3, MITF inhibitor project, dose response (AID 493073); assay type: functional;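 further: SK-MEL-5 melanoma cells with luciferase driven by the MITF target TRPM1 promoter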
# T4 sequence (O75030 whole entry): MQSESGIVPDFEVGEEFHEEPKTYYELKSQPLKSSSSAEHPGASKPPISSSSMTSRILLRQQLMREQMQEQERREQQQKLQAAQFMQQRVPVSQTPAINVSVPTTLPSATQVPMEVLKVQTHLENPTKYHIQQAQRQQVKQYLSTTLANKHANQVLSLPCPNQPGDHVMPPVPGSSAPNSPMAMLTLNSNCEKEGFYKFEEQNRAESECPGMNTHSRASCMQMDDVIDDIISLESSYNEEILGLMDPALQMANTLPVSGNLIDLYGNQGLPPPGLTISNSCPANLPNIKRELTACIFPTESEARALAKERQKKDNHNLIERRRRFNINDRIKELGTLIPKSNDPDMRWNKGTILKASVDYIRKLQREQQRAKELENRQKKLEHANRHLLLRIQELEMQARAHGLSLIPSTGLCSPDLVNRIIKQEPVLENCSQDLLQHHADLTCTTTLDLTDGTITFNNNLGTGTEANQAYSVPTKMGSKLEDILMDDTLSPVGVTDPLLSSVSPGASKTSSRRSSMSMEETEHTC
# [12] = molecular target: T5, Voltage-gated N-type calcium channel alpha-1B subunit/Amyloid beta A4 precursor protein-binding family A member 1 (Homo sapiens, UniProt Q00975+Q02410); assay type: protein assay
# Beta-lactamase [13] = molecular target: Beta-lactamase (Pseudomonas aeruginosa, UniProt Q79MP6);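 further: biochemical dose-response test of metallo-beta-lactamase enzyme inhibition, read out by epi-absorbance; purified recombinant IMP-1 metallo-beta-lactamase with nitrocefin as substrate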
# [14] = molecular target: T6, Small ubiquitin-related modifier 1 (Homo sapiens, UniProt P63165); assay: SUMO1 protein interaction blockers, potency – biochemical, fluorescence polarization, uHTS hits, dose response (AID 624382); assay type: functional; details: read-out: IC50_Mean
# [15] = molecular target: T6, Small ubiquitin-related modifier 1; assay: SUMO1 protein-protein binding blockers, potency – biochemical, FRET, dose response (AID 624383); assay type: functional; details: read-out: IC50_Mean
# Beta-lactamase [16] = molecular target: Beta-lactamase (Salmonella choleraesuis (strain SC-B67), UniProt Q5J463)
# [17] = molecular target: T5, Voltage-gated N-type calcium channel alpha-1B subunit/Amyloid beta A4 precursor protein-binding family A member 1; assay type: protein assay; remark: listed apart in the source
# [18] = molecular target: DNA dC->dU-editing enzyme APOBEC-3G (Homo sapiens, UniProt Q9HC16); assay type: functional;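 further: Dose-response counterscreen measuring inhibition of APOBEC3G DNA deaminase activity, run while confirming APOBEC3A inhibitors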
# [19] = molecular target: DNA dC->dU-editing enzyme APOBEC-3A (Homo sapiens, UniProt P31941); assay: Dose Response confirmation of small molecule APOBEC3A DNA Deaminase Inhibitors via a fluorescence-based single-stranded DNA deaminase assay. [Related pubchem assays (depositor defined):AID493011, AID493024]; assay type: functional
# [20] = molecular target: T7, Trace amine-associated receptor 1 (Homo sapiens, UniProt Q96RJ0); assay: Fluorescence-based cell-based high throughput dose response assay to identify agonists of the human trace amine associated receptor 1 (TAAR1).; assay type: functional
# T7 sequence (Q96RJ0 whole entry): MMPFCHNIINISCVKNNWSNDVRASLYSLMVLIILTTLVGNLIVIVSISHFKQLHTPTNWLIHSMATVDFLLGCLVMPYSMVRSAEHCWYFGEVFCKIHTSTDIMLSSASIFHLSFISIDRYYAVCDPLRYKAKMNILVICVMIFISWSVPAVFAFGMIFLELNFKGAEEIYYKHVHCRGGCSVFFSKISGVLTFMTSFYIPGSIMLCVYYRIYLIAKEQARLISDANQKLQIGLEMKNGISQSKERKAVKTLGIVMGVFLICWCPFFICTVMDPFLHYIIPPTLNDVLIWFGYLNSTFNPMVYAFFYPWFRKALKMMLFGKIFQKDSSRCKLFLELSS
# cells [21] = assay type: functional, cell-based
# [22] = molecular target: T7, Trace amine-associated receptor 1; assay: Counterscreen for agonists of the human trace amine associated receptor 1 (hTAAR1): Fluorescence-based cell-based high throughput dose response assay to identify hTAAR1 agonist that also desensitize TAAR1 receptor response.; assay type: functional
# cells [23] = assay type: functional, cell-based; remark: listed apart in the source
# [24] = tested on: Streptococcus sp. 'group A'; assay: Streptococcus pyogenes SK(-)GAS viability under kanamycin – luminescence, BacTiterGlo, confirmation, counter-screen for streptokinase expression inhibitor project, dose response (AID 1900); assay type: functional, organism-based
# Streptococcus = assay: GAS UMAA2166 growth inhibition – luminescence, BacTiterGlo, counter-screen for streptokinase expression inhibitor project, dose response (AID 1915); assay type: functional, organism-based;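 further: potency for reduction of bacterial viability or growth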
# HEK293 [25] = assay: cells; details: Homo sapiens
# HEK293 [26] = assay: cells; details: Homo sapiens; remark: listed apart in the source
# [27] = molecular target: Ras and Rab interactor 1/Tyrosine-protein kinase ABL1 (Homo sapiens, UniProt P00519+Q13671); assay type: functional;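 further: biochemical TR-FRET dose-response test measuring inhibition of binding between Rin1 and Abl proteins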
# [28] = molecular target: 5-hydroxytryptamine receptor 2A (Mus musculus, UniProt P35363); assay type: functional, cell-based;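 further: CHO-K1 cells with tagged receptor and beta-arrestin; agonist potency measured as compound-induced activation of the receptor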
# Mu-type opioid receptor = Mu-type opioid receptor (Homo sapiens, UniProt P35372); assay type: functional, cell-based;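 further: U2OS cells with beta-arrestin recruitment to OPRM1 by beta-gal complementation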
# [29] = molecular target: T8, ATP-dependent translocase ABCB1 (Homo sapiens, UniProt P08183); assay: inhibition of BCRP-mediated JC-1 efflux – Ig-MXP3 cells, flow cytometry, set 2, dose response (AID 504566); assay type: functional; details: read-out: EC50_MICROM_;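 further: flow cytometry median green fluorescence of retained JC-1 dye; potency of efflux pump inhibition measured as rising substrate retention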
# [30] = molecular target: T8, ATP-dependent translocase ABCB1; assay: P-gp JC-1 efflux blockade concentration-response – Jurkat-DNR cells, flow cytometry, set 2, dose response (AID 504569); assay type: functional; details: read-out: EC50_MICROM_;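 further: potency of pump inhibitors that raise cellular JC-1 green fluorescence up to the nicardipine level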
# [31] = general mammalian cell viability loss – inhibitor set, cherry-pick, set 2, cytotoxicity control for miR-122 modulator project, dose response (AID 720697); assay type: functional, cell-based
# Vero [32] = assay: cells; assay type: functional; details: Chlorocebus sabaeus
# Sequence of 5-hydroxytryptamine receptor 2A (P35363 whole entry): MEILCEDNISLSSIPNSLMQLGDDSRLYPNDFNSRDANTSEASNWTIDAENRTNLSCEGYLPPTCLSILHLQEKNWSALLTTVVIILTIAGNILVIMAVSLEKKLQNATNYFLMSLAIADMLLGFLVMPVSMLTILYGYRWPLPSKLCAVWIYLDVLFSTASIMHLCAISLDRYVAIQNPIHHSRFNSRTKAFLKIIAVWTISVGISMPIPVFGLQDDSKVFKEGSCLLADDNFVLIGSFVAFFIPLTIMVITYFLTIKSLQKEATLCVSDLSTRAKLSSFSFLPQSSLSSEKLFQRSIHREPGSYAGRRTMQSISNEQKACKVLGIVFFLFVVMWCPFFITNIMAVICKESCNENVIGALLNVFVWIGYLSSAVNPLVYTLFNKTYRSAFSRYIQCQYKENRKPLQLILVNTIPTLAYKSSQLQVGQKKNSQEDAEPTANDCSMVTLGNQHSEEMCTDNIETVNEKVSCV
# T8 sequence (P08183 whole entry): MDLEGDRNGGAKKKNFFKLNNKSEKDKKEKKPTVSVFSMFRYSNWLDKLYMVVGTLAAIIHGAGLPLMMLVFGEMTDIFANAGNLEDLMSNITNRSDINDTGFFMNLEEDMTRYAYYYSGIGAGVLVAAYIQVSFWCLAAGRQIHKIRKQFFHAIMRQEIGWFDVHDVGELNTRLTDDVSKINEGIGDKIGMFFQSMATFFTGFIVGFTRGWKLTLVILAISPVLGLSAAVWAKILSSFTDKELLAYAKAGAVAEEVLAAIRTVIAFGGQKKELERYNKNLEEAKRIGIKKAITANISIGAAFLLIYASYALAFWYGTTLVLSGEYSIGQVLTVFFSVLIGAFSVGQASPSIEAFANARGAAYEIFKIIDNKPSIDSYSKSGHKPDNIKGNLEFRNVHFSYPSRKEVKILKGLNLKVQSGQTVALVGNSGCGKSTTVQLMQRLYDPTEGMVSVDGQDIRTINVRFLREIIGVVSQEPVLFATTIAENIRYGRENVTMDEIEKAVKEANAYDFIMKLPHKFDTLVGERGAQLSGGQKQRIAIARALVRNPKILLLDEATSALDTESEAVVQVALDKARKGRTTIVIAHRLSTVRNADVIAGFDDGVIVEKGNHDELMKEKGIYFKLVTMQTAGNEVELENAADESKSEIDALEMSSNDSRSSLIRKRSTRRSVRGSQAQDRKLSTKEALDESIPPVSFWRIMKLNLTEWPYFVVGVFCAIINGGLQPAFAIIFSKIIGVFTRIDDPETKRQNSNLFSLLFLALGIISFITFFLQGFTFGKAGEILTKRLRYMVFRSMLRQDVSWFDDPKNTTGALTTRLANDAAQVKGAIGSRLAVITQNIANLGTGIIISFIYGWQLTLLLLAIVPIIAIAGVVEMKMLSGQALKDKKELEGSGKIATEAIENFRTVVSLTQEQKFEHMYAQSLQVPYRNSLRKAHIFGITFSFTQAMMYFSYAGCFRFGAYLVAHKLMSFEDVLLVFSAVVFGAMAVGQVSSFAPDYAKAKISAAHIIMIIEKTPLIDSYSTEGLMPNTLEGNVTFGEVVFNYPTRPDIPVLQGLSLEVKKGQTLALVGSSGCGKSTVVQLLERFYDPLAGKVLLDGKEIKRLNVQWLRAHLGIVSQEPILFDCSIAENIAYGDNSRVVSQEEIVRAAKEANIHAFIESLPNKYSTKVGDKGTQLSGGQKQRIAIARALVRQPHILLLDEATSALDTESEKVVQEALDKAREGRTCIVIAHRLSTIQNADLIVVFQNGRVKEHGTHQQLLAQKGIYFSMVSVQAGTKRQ
# Sequence of Mu-type opioid receptor (P35372 whole entry): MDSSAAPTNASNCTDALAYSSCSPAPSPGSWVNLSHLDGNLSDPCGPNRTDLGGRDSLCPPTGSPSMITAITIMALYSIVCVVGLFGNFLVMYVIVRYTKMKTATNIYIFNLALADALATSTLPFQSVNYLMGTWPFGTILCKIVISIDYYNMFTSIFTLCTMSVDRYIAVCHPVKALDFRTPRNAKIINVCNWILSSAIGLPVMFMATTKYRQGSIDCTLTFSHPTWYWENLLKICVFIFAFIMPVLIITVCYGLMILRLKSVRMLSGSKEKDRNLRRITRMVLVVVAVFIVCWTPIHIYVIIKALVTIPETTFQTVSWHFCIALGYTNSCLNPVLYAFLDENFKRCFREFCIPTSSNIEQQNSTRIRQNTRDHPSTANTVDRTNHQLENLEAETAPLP
# T6 sequence (P63165 whole entry): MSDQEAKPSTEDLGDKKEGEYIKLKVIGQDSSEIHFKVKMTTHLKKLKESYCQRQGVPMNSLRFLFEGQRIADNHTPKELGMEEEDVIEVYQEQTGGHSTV
# T3 sequence (P49327 whole entry): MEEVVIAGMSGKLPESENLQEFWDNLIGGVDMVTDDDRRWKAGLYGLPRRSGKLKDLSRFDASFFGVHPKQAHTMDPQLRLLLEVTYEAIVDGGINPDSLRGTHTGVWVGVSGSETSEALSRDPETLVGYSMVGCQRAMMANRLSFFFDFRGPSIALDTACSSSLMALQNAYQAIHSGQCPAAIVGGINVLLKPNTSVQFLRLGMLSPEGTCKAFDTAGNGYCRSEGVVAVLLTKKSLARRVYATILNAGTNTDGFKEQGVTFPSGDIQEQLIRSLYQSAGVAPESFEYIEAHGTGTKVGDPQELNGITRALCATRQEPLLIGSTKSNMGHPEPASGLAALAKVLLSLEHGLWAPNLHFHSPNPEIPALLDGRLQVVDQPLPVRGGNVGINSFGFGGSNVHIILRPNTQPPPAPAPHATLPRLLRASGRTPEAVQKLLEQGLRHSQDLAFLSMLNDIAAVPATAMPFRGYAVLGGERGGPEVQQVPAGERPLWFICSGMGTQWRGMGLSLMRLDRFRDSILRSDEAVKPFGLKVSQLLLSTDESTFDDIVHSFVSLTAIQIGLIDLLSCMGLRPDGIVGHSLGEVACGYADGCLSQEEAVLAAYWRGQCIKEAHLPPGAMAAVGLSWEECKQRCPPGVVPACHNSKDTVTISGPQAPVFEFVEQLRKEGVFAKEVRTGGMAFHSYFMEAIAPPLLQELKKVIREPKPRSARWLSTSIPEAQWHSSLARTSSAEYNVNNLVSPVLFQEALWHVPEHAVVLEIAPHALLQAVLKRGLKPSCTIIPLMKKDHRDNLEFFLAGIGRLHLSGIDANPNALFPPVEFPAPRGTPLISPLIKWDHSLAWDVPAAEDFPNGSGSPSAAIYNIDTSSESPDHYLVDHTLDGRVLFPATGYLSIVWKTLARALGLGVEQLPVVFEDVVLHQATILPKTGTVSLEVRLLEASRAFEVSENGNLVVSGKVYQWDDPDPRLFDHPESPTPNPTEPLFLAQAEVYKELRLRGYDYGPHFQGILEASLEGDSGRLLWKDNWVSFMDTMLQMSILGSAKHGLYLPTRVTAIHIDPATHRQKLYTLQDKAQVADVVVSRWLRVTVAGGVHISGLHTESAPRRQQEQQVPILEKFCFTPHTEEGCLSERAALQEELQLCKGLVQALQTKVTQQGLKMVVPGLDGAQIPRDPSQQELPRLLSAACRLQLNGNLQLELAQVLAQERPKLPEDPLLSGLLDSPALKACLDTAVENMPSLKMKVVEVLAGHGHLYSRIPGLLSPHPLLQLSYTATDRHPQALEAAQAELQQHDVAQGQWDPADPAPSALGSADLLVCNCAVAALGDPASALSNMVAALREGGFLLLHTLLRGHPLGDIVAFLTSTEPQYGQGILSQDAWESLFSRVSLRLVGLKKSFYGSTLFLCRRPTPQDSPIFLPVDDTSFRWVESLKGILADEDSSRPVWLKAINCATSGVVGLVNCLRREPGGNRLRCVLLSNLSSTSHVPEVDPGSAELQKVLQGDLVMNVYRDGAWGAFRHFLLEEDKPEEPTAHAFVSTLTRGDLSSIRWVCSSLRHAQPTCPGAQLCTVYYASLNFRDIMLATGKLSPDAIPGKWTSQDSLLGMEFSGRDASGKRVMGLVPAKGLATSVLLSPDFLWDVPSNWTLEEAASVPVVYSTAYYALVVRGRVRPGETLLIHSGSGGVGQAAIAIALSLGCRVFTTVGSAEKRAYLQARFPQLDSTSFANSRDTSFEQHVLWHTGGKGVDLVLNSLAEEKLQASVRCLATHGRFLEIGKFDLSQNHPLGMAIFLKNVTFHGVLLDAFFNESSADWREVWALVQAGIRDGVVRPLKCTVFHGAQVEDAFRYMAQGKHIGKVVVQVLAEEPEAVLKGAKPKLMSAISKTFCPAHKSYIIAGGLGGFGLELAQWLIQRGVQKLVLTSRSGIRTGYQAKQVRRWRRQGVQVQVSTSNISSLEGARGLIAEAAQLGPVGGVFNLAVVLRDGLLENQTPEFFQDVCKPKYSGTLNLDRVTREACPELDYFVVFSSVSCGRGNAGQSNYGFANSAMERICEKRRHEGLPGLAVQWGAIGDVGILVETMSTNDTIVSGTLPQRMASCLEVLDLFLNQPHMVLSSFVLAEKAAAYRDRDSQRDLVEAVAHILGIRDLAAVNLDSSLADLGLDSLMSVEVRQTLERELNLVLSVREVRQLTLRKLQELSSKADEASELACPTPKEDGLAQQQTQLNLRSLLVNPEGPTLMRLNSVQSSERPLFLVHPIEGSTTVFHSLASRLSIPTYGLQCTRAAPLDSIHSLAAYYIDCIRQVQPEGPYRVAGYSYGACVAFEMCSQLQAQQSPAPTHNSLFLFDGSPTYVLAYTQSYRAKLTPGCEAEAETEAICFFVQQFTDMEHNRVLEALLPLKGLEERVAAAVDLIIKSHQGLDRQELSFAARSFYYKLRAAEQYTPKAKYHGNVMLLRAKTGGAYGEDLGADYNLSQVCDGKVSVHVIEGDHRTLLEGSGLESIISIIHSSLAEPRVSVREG
# Sequence of Beta-lactamase (Salmonella choleraesuis (strain SC-B67), UniProt Q5J463) (Q5J463 whole entry): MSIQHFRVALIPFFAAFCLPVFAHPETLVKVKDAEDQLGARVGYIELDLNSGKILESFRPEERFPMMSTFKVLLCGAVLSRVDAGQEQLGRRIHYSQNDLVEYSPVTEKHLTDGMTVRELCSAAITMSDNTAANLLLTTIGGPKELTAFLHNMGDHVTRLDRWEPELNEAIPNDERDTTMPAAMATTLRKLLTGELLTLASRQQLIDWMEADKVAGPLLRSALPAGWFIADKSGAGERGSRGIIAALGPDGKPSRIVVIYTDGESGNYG
smiles,measurement,setting,value
O=C(O)c1cccnc1Nc1ccc(Cl)cc1,IC50,Vero [1],17.3 µM (active)
same,IC50,cells [2],7.51 µM (active)
same,CC50,[3],14.7 µM (active)
O=C(Nc1cccnc1)c1ccc(Oc2ccccc2)cc1,AC50,[4],0.751 µM (active)
CCOc1ccc2nc(NC3=NC(C)=CC(C)(C)N3)nc(C)c2c1,IC50,[5],3.25 µM (active)
same,IC50,[6],> 20 µM (inactive)
same,IC50,[7],6.46 µM (active)
O=C(NNC(=S)Nc1ccccc1)c1ccc2ncccc2c1,IC50,[8],> 122 µM (inactive)
O=C(CNc1cc(S(=O)(=O)N2CCCC2)ccc1OCC(F)(F)F)Nc1ccc(SC(F)F)cc1,IC50,Fatty acid synthase [9],6.37 µM (active)
same,IC50,[5],2.54 µM (active)
same,IC50,Fatty acid synthase [10],2.98 µM (active)
same,IC50,[7],1.85 µM (active)
CCSc1ccccc1C(=O)n1nnc2ccccc21,AC50,[11],11.8 µM (active)
O=C(Cc1cccs1)NNC(=S)NCc1ccc(Cl)cc1,IC50,[8],> 122 µM (inactive)
Cc1ccc(Cn2c(C(C)Nc3nc(-c4ccc(C)cc4)cs3)nc3cc(Cl)c(Cl)cc32)cc1 (configuration not stated),IC50,[12],4.57 µM (active)
same,IC50,Beta-lactamase [13],> 59.6 µM (inactive)
same,IC50,[14],> 66.6 µM (inactive)
same,IC50,[15],3.52 µM (active)
same,IC50,Beta-lactamase [16],> 59.6 µM (inactive)
same,IC50,[17],> 50 µM (inactive)
CN1CCC(N(C)S(=O)(=O)c2ccc(NC(=O)COc3ccc(Br)cc3Cl)cc2)CC1,IC50,[18],14.2 µM (active)
same,IC50,[19],10.4 µM (active)
CCOC(=O)C(NC(C)=O)(N1CCc2ccccc2C1)C(F)(F)F (configuration not stated),EC50,[20],0.0868 µM (active)
same,IC50,cells [21],> 29.9 µM (inactive)
same,IC50,[22],2.8 µM (active)
same,EC50,cells [23],> 29.9 µM (inactive)
COc1cc(C(=O)NNC(=S)NC(=O)c2ccc3c(c2)OCO3)cc(OC)c1OC,EC50,[24],1.36 µM (active)
same,EC50,Streptococcus,3.37 µM (active)
same,IC50,[8],> 122 µM (inactive)
COc1cc(OC)c(-c2nn3c(C4CCCCC4)nnc3s2)cc1OC,EC50,HEK293 [25],> 59.6 µM (inactive)
same,EC50,HEK293 [26],> 59.6 µM (inactive)
same,CC50,[3],33.1 µM (active)
CN(C)C(=S)N=c1ssc(=S)n1Cc1cccnc1,EC50,HEK293 [25],> 59.6 µM (inactive)
same,EC50,HEK293 [26],> 59.6 µM (inactive)
Cc1ccc(S(=O)(=O)N2CCN(C(=O)Cn3cnc4c3c(=O)n(C)c(=O)n4C)CC2)cc1C,IC50,[27],21.5 µM (inactive)
CN(c1ccc(OCC(=O)Nc2ccccc2C(=O)O)cc1)S(=O)(=O)c1ccc(Cl)cc1,IC50,Vero [1],20.1 µM (active)
Nc1c(N(CCC2=CCCCC2)C(=O)COc2ccc([N+](=O)[O-])cc2)c(=O)[nH]c(=O)n1Cc1ccccc1,AC50,[11],14.2 µM (active)
COc1ccc(CN2CCN(C(=O)c3ccco3)CC2)c(OC)c1OC,EC50,[28],6.39 µM (active)
same,EC50,Mu-type opioid receptor,92.5 µM (inactive)
Clc1ccc(CN2CCN(c3ccccc3)CC2)cn1,EC50,[28],5.22 µM (active)
same,EC50,Mu-type opioid receptor,92.5 µM (inactive)
O=C(c1ccncc1)N1CCN(c2cc(-c3ccccc3)nc3cc(-c4cccc(Cl)c4)nn23)CC1,EC50,[29],1.19 µM (active)
same,EC50,[30],950 nM (active)
CC(N)Cc1c[nH]c2ccc(Cl)cc12 (configuration not stated),EC50,[28],1.64 µM (active)
same,EC50,Mu-type opioid receptor,92.5 µM (inactive)
CCNC(=O)C[C@H]1CC[C@@H]2[C@@H](COc3ccc(NC(=O)Nc4cccc(F)c4)cc3C(=O)N2C)O1,AC50,[4],4.35 µM (active)
O=C(c1ccccc1)N1CCN(c2cc(-c3ccccc3)nc3cc(-c4cccc(F)c4)nn23)CC1,EC50,[29],2.41 µM (active)
same,EC50,[30],5820 nM (active)
CC(C)(C)[S@+]([O-])N1Cc2cc(C(=O)NCc3ccccc3F)nc(-c3cccc(-c4cccnc4)c3)c2[C@@H]1CCO,AC50,[4],9.55 µM (active)
O=C(c1ccccc1)N1CCN(c2cc(-c3ccccc3)nc3cc(-c4cccc(Cl)c4)nn23)CC1,EC50,[29],1.05 µM (active) and 1.81 µM (active)
same,EC50,[30],2.26 µM (active) and 4 µM (active)
CN1C(=O)c2cc(NC(=O)c3cccs3)ccc2OC[C@H]2O[C@@H](CC(=O)NCCN3CCCCC3)CC[C@@H]21,AC50,[31],4.24 µM (active)
CC1(C)CC(=O)C(/C=N\CCc2ccc(O)cc2)=C(O)C1,EC50,[20],1.84 µM (active)
same,IC50,cells [21],> 29.9 µM (inactive)
same,IC50,[22],8.81 µM (active)
same,EC50,cells [23],> 29.9 µM (inactive)
COc1cccc(Nc2nc(NCCO)c3ccccc3n2)c1,EC50,[20],4.4 µM (active)
same,IC50,cells [21],> 29.9 µM (inactive)
same,IC50,[22],14 µM (inactive)
same,EC50,cells [23],> 29.9 µM (inactive)
CC(C)CC(NC(=O)OCc1ccccc1)C(=O)NC(Cc1ccccc1)C(=O)CCl (stereo not drawn) (Cbz-Leu-Phe-CH2Cl; configuration not given here),IC50,Vero [1],20.5 µM (active)
same,CC50,Vero [32],21.5 µM (active)
